The text below walks through data of patent US5532267A, “Amidinonaphthyl furancarboxylate derivatives and acid addition salts therof” (Torii & Co., Ltd., priority 1992, dated 1996).

Assay type in all cases: biochemical
Assay [1] deals with T1, trypsin (Bos taurus, UniProt P00760).
T1 sequence (P00760 24-246): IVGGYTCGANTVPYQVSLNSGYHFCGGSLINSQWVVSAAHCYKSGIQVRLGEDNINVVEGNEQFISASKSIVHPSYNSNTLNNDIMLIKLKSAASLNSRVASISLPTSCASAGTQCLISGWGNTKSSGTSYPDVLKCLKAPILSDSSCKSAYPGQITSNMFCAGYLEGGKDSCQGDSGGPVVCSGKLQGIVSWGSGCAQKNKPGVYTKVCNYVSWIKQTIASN
Briefly: anti-trypsin activity, hydrolysis of TAME (tosylarginine methyl ester).

For assay [2], the target named is plasmin (Homo sapiens, UniProt P00747). Briefly: anti-plasmin activity, hydrolysis of TAME (tosylarginine methyl ester). How it is done:
(§1) The values in Table 1 represent molar concentrations (IC50) of test compounds which inhibit 50% of the activity of each enzyme to hydrolyze TAME (tosylarginine methyl ester). The anti-trypsin, anti-plasmin, anti-kallikrein and anti-thrombin activities were determined according to the method of Muramatsu et al. (J. Biochem. (1965), volume 58, page 214).

For assay [3], the target named is T2, C1r (Homo sapiens, UniProt P00736).
T2 sequence (P00736 18-705): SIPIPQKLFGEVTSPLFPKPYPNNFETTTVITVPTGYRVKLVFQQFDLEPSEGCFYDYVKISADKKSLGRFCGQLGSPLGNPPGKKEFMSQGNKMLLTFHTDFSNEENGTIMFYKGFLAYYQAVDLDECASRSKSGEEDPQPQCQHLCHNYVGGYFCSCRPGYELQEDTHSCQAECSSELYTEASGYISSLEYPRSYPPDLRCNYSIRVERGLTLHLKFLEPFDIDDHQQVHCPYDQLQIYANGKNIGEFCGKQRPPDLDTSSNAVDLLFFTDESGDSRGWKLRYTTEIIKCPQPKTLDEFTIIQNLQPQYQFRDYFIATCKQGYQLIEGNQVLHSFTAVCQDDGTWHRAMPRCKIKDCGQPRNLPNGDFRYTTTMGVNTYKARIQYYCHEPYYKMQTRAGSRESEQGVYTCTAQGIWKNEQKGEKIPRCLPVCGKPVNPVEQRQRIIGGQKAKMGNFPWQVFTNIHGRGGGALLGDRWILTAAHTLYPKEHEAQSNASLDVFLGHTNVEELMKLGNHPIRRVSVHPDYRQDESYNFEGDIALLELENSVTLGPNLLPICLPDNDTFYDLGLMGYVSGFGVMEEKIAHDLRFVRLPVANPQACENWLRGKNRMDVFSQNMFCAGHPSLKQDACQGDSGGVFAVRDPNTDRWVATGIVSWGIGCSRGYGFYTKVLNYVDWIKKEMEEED
Kind of assay: anti-complement (anti-C1 esterase) activity, C1r hydrolysis of AAME (acetyl-arginine methyl ester). To be noted: for inhibition at 10 µM: read-out: Clr: percentage inhibition.

Assay [4] deals with T3, C1s (Homo sapiens, UniProt P09871).
T3 sequence (P09871 16-688): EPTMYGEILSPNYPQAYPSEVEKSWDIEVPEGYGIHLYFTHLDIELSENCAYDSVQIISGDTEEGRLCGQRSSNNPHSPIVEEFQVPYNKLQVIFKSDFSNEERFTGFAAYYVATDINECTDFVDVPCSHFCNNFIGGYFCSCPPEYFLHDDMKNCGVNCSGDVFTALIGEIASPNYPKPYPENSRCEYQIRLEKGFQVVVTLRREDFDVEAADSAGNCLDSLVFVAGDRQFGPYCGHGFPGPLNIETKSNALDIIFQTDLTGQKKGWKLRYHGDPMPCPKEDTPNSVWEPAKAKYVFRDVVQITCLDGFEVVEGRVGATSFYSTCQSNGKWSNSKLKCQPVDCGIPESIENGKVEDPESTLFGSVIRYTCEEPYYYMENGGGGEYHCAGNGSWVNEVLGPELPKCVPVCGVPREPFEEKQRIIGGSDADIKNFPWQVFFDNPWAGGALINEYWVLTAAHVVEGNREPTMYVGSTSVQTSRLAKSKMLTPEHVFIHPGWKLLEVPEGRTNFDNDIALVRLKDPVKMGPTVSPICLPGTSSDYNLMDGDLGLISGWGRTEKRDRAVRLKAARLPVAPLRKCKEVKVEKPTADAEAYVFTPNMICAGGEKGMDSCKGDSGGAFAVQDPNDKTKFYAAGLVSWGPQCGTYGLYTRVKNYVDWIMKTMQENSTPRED
Briefly: anti-complement (anti-C1 esterase) activity, C1s hydrolysis of ATEE (acetyltyrosine ethyl ester). To be noted: for IC50: hydrolysis of ATEE, read-out: Cls: molar concentration inhibiting 50% of C1s activity (IC50).
Experimental: The anti-C1 esterase (C1r, C1s) activity was determined according to the method of Okamura et al. (Biochem. Biophys. Acta (1973), volume 295, pages 252-257). […] The values for C1s represent molar concentrations (IC50) of test compounds which inhibit 50% of the activity of C1s to hydrolyze ATEE (acetyltyrosine ethyl ester).

For assay [5], the system named is kallikrein. Briefly: anti-kallikrein activity, hydrolysis of TAME (tosylarginine methyl ester). The settings on record: for IC50: hydrolysis of TAME, read-out: Kal: molar concentration inhibiting 50% of enzyme activity (IC50); for Kal: percentage inhibition: at a concentration of 1 × 10^-5 M. How it is done: as §1
For assay [6], the target named is thrombin (Homo sapiens, UniProt P00734). Kind of assay: anti-thrombin activity, hydrolysis of TAME (tosylarginine methyl ester). To be noted: for IC50: hydrolysis of TAME, read-out: Thr: molar concentration inhibiting 50% of enzyme activity (IC50); for inhibition at 10 µM: at a concentration of 1 × 10^-5 M, read-out: Thr: percentage inhibition. The protocol:
as §1

Where [7] appears, read: hydrolysis of TAME, read-out: Pla: molar concentration inhibiting 50% of enzyme activity (IC50).
Where [8] appears, read: hydrolysis of AAME, read-out: Clr: molar concentration inhibiting 50% of C1r activity (IC50).
Setting [9] is: hydrolysis of TAME, read-out: Try: molar concentration inhibiting 50% of enzyme activity (IC50).

Counter-ions that a name gives are not always drawn. Like-named read-outs stand apart in the source and are kept apart here.

plasmin, sequence (P00747 581-810 limits assumed, species assumed): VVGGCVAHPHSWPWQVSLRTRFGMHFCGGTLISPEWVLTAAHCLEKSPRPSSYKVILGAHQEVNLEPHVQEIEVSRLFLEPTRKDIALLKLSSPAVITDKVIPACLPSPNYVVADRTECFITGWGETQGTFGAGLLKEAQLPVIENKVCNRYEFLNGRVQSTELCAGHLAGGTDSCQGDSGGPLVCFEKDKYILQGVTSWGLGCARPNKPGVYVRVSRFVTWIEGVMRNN
plasmin, sequence (P00747 97-580 partner limits assumed, species assumed): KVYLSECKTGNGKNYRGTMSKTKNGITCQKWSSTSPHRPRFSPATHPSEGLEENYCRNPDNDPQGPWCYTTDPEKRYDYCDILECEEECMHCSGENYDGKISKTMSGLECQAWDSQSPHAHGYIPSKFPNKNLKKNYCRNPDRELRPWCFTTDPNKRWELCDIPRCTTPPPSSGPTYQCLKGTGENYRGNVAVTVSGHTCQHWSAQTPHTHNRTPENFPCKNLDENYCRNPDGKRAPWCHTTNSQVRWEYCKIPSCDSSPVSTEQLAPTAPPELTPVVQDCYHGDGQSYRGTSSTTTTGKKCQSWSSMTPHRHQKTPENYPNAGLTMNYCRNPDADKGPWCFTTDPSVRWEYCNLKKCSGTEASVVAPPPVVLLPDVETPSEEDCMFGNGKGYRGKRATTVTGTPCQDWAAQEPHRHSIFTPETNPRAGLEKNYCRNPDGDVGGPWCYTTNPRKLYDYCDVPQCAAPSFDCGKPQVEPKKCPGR

On to `CC(C)(C)OC(=O)C=Cc1ccc(C(=O)NCc2ccc(C(=O)Oc3ccc4cc(C(=N)N)ccc4c3)o2)cc1` [Example 1, 6-Amidino-2-naphthyl 5-[4-(2-t-butoxycarbonylvinyl)benzoylaminomethyl]furan-2-carboxylate hydrobromide], for which the IC50 in assay [1] amounted to 350 nM; in assay [2] (setting [7]), 150 nM; in assay [3] (setting [8]) it was 340 nM; in assay [4], 270 nM; in assay [5], 470 nM; in assay [6] it was 350 nM.
A word on the inhibition: it is the percentage by which the read-out fell short of the control. On to `Cl.N=C(N)c1ccc2cc(OC(=O)c3ccc(CNC(=O)c4ccc(C=CC(=O)O)cc4)o3)ccc2c1` [Example 2, 6-Amidino-2-naphthyl 5-[4-(2-carboxyvinyl)benzoylaminomethyl]furan-2-carboxylate hydrochloride], for which the IC50 in assay [1] (setting [9]) stood at 8400 nM; in assay [2] (setting [7]), 4800 nM. Besides, the inhibition at 10 µM in assay [3] (at a concentration of 1 × 10^-5 M) was found to be 29%; in assay [4] (read-out: Cls: percentage inhibition), 17%; in assay [6] it was 47%. Also, the “Kal: percentage inhibition” value in assay [5] is reported as 46%.
In the case of `Cl.N=C(N)c1ccc2cc(OC(=O)c3ccc(CNC(=O)c4ccc(C(=O)O)cc4)o3)ccc2c1` [Example 3, 6-Amidino-2-naphthyl 5-(4-carboxybenzoylaminomethyl)furan-2-carboxylate hydrochloride], the inhibition at 10 µM in assay [1] (read-out: Try: percentage inhibition) stood at 48%; in assay [3] it was 34%; in assay [6], 26%. Moreover, the results for the IC50 in assay [2] (setting [7]) and in assay [4] were 8600 nM and 3400 nM, respectively. Besides, in assay [5], the “Kal: percentage inhibition” value is on record as 33%.
Take `COC(=O)Cc1ccc(C(=O)NCc2ccc(C(=O)Oc3ccc4cc(C(=N)N)ccc4c3)o2)cc1` [Example 4, 6-Amidino-2-naphthyl 5-(4-methoxycarbonylmethylbenzoylaminomethyl)furan-2-carboxylate hydrochloride]: the IC50 in assay [1] (setting [9]) stood at 340 nM; in assay [2] (setting [7]) it was 72 nM; in assay [3] (setting [8]), 64 nM; in assay [4], 160 nM; in assay [5], 210 nM; in assay [6], 70 nM.
With `CC(C)(C)OC(=O)c1ccc(CC(=O)NCc2ccc(C(=O)Oc3ccc4cc(C(=N)N)ccc4c3)o2)cc1` [Example 5, 6-Amidino-2-naphthyl 5-(4-t-butoxycarbonylphenylacetylaminomethyl)furan-2-carboxylate hydrochloride], the IC50 in assay [1] (setting [9]) turned out to be 340 nM; in assay [2] (setting [7]), 100 nM; in assay [3] (setting [8]) it was 73 nM; in assay [4], 360 nM; in assay [5], 300 nM; in assay [6], 180 nM.
As for `N=C(N)c1ccc2cc(OC(=O)c3ccc(CNC(=O)c4ccc(CC(=O)O)cc4)o3)ccc2c1` [Example 7, 6-Amidino-2-naphthyl 5-(4-carboxymethylbenzoylaminomethyl)furan-2-carboxylate hydrochloride], the IC50 in assay [1] (setting [9]) is 1800 nM; in assay [2] (setting [7]) it was 300 nM; in assay [3] (setting [8]), 740 nM; in assay [4] it was 460 nM; in assay [5], 1500 nM; in assay [6], 400 nM.
Regarding `N=C(N)c1ccc2cc(OC(=O)c3ccc(CNC(=O)C=Cc4ccc(C(=O)O)cc4)o3)ccc2c1` [Example 8, 6-Amidino-2-naphthyl 5-(4-carboxycinnamoylaminomethyl)furan-2-carboxylate hydrochloride], the IC50 in assay [1] (setting [9]) worked out at 2100 nM; in assay [2] (setting [7]), 1100 nM; in assay [3] (setting [8]) it was 830 nM; in assay [4] it was 2000 nM; in assay [5] it was 2700 nM; in assay [6], 1400 nM.
`N=C(N)c1ccc2cc(OC(=O)c3ccc(CNC(=O)c4ccc(CCC(=O)O)cc4)o3)ccc2c1` [Example 9, 6-Amidino-2-naphthyl 5-[4-(2-carboxyethyl)benzoylaminomethyl]furan-2-carboxylate hydrochloride]: the IC50 stood at 4800 nM in assay [1] (setting [9]); 500 nM in assay [2] (setting [7]); 2800 nM in assay [3] (setting [8]); 2300 nM in assay [4]; 6000 nM in assay [5]; 650 nM in assay [6].
For `N=C(N)c1ccc2cc(OC(=O)c3ccc(CNC(=O)[C@H]4CC[C@@H](C(=O)O)CC4)o3)ccc2c1` [Example 10, 6-Amidino-2-naphthyl 5-(cis-4-carboxy-1-cyclohexanoylaminomethyl)furan-2-carboxylate hydrochloride], the IC50 in assay [1] (setting [9]) was found to be 600 nM; in assay [2] (setting [7]), 150 nM; in assay [3], 160 nM; in assay [4] it was 26 nM; in assay [5], 250 nM; in assay [6], 1600 nM.
Take `N=C(N)c1ccc2cc(OC(=O)c3ccc(CNC(=O)/C=C\C(=O)O)o3)ccc2c1` [Example 12, 6-Amidino-2-naphthyl 5-(cis-2-carboxyvinyl)carbonylaminomethylfuran-2-carboxylate methanesulfonate]: the IC50 in assay [1] (setting [9]) came out at 480 nM; in assay [2] (setting [7]), 270 nM; in assay [3] (setting [8]), 2800 nM; in assay [4], 210 nM; in assay [5], 770 nM; in assay [6], 600 nM.
Consider `CC(C)(C)OC(=O)CC(=O)NCc1ccc(C(=O)Oc2ccc3cc(C(=N)N)ccc3c2)o1` [Example 15, 6-Amidino-2-naphthyl 5-t-butoxymalonylaminomethylfuran-2-carboxylate hydrochloride], for which the IC50 was found to be 710 nM in assay [1] (setting [9]); 310 nM in assay [2] (setting [7]); 840 nM in assay [3] (setting [8]); 230 nM in assay [4]; 320 nM in assay [5]; 400 nM in assay [6].
With `N=C(N)c1ccc2cc(OC(=O)c3ccc(CNC(=O)C(=O)O)o3)ccc2c1` [Example 16, 6-Amidino-2-naphthyl 5-oxaloaminomethylfuran-2-carboxylate hydrochloride], the IC50 in assay [1] (setting [9]) was 340 nM; in assay [2] (setting [7]), 240 nM; in assay [3] (setting [8]), 6900 nM; in assay [4] it was 350 nM; in assay [5], 3800 nM; in assay [6] it was 1300 nM.
Take `CC(C)(C)OC(=O)CCC(=O)NCc1ccc(C(=O)Oc2ccc3cc(C(=N)N)ccc3c2)o1` [Example 18, 6-amidino-2-naphthyl 5-(3-t-butoxycarbonylpropionylaminomethyl)furan-2-carboxylate hydrochloride]: the IC50 turned out to be 400 nM in assay [1] (setting [9]); 190 nM in assay [2]; 340 nM in assay [3] (setting [8]); 190 nM in assay [4]; 210 nM in assay [5]; 350 nM in assay [6].
